The values that follow come from PMC12569736 (Journal of Cosmetic Dermatology, 2025).

One series concerns the target T1, human tyrosinase (hTYR) (Homo sapiens, UniProt P14679).
T1 construct: tyrosinase enzyme solution derived from MNT‐1 cells; endogenous in cells; host or cells: MNT-1 human melanoma cell line (crude lysate supernatant)
T1 sequence (P14679 19-529): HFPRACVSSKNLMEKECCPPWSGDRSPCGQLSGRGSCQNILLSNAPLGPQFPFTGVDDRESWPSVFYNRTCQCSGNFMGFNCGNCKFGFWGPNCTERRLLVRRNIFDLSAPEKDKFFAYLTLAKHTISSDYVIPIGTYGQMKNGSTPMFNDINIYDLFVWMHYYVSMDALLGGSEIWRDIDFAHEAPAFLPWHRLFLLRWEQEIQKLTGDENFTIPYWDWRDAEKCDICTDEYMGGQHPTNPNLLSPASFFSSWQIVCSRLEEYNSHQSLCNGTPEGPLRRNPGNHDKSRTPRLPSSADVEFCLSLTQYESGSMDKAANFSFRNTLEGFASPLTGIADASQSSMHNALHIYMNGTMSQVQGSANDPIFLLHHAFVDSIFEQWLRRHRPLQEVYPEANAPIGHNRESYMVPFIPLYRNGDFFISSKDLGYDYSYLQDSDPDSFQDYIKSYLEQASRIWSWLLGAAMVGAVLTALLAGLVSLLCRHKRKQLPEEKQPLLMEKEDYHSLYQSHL
In words: L‐DOPA oxidation assay for tyrosinase activity (MNT‐1 cell lysate). The class given is biochemical. The method, then: The hTYR‐mediated L‐DOPA oxidation assay was performed according to Winder and Harris. MNT‐1 cells were resuspended in 0.05 M sodium phosphate buffer (pH 6.9) and sonicated for 1 min. After incubation on ice for 3–5 min, the mixture underwent a second sonication. The lysate was centrifuged at 13 000 rpm for 15 min at 4°C, and the supernatant was collected and kept on ice.
For the assay, 20 μL of crude enzyme solution and 80 μL sodium phosphate buffer were added to a 96‐well plate and centrifuged at 1000 rpm for 30 s. Subsequently, 2 μL of different concentrations of test compounds were added to each well, followed by centrifugation at 1000 rpm for 30 s. Finally, 100 μL L‐DOPA (final concentration 4 mM) was added to initiate the reaction. The microplate reader (Synergy H1 Hybrid Reader, BioTek) was used to monitor the reaction at 26°C, measuring absorbance at 475 nm every minute for 60 min. IC50 values were calculated using GraphPad software based on Vmax values from the kinetic curves.
The L‐DOPA tyrosinase assay was performed using a tyrosinase enzyme solution derived from MNT‐1 cells in 50 mM sodium phosphate buffer (pH 6.9), with a substrate (L‐DOPA) concentration of 4 mM and various concentrations of inhibitors as indicated. Data represent mean ± standard deviation of three independent experiments.

For another series, the system named is MNT‐1 cells. The series is described as follows: Melanin content in MNT‐1 cells after 6 days of treatment. Type of series: cell-based, human. The method, then:
MNT‐1 cells were exposed to varying concentrations of test compounds for 6 days. After treatment, cells were harvested and lysed in RIPA buffer on ice for 20 min. Lysates were centrifuged at 13 000 rpm for 10 min at 4°C, and the supernatant was collected. Protein concentration was quantified using a BCA Protein Assay Kit (Thermo Fisher). To extract melanin, cell pellets were dissolved in 1 M NaOH and incubated for 3 h at 80°C. Absorbance at 405 nm was measured using a Synergy H1 Hybrid Reader. Melanin content was quantified by referencing a standard curve of synthetic melanin (maximum concentration 50 μg/mL, 2‐fold gradient dilution, 8 concentration points). Melanin content was normalized to protein concentration (μg melanin/mg protein), and IC50 values were calculated using GraphPad software.
FIGURE 3 Inhibition of melanin production in MNT‐1 by KT‐939, Thiamidol, and 4‐butylresorcinol. MNT‐1 cells were treated with different concentrations of KT‐939, Thiamidol, or 4‐butylresorcinol for 6 days. The melanin content was quantified based on the standard curve of melanin, and the melanin content per mg of protein was utilized for IC50 calculations with GraphPad software.

Series [1] in a line: DPPH radical scavenging assay. On the procedure: A DPPH radical scavenging assay kit (Solarbio) was used to assess antioxidant activity, following the manufacturer's instructions. Briefly, 10 μL of each test compound at the indicated concentrations was mixed with 190 μL DPPH solution in a 96‐well plate. Control wells (10 μL compound + 190 μL ethanol) and blank wells (10 μL solvent + 190 μL ethanol) were included. The reaction mixtures were gently shaken and incubated for 30 min at room temperature in the dark. Absorbance was measured at 515 nm using a Synergy H1 Hybrid Reader.
A DPPH radical scavenging assay was conducted to evaluate the antioxidant activity of KT‐939 at various concentrations, with a maximum concentration of 10 mM in a 5‐fold dilution series. Data represent mean ± standard deviation of three independent experiments.
On the technique in general: Loss of DPPH colour is used to gauge radical scavenging.

For the next series, the system named is B16‐F10 cells. The series is described as follows: Cell viability, B16‐F10. Type of series: cell-based, murine. To be noted: B16‐F10, 72 h, up to 50 μM. The method, then:
(§1) B16‐F10, MNT‐1, and HaCaT cells (5000 cells/well) were seeded into 96‐well plates and incubated overnight. Culture medium (50 μL) containing varying concentrations of KT‐939 was added to each well, and cells were incubated for 72 h. Cell viability was assessed using the Cell Viability Assay Kit (Vazyme Biotech), following the manufacturer's instructions. Luminescence was measured using a Synergy H1 Hybrid Reader. DMSO‐treated cells served as the control, and survival rates were calculated and analyzed with GraphPad software.
(§2) B16‐F10, MNT‐1, and HaCaT cells were incubated with different concentrations of KT‐939 for 72 h. Cell viability was assessed and normalized to the DMSO‐treated control group.

A further series deals with HaCaT cells. The series is described as follows: Cell viability, HaCaT. Type of series: cell-based, human. Conditions: 72 h, up to 50 μM. The method, then:
as §1, §2

Consider `CC1(C(=O)Nc2nc(-c3ccc(O)cc3O)cs2)COC1` [KT‐939, N‐(4‐(2,4‐Dihydroxyphenyl) Thiazol‐2‐yl)‐3‐Methyloxetane‐3‐Carboxamide], for which the half-inhibitory concentration (IC50) – broadly, the midpoint of a concentration-inhibition curve – on human tyrosinase (hTYR) (MNT‐1 lysate, L‐DOPA 4 mM, pH 6.9, read-out: IC50 against hTYR) is 70 nM; in the series with MNT‐1 cells (Homo sapiens, 144 h, MNT‐1, 6 days, read-out: IC50 of melanin production) it was 360 nM. Moreover, the “inhibition of hTYR” value at human tyrosinase (hTYR) (at concentrations ≥ 0.4 μM) is “nearly complete inhibition”. Also, the “fold greater hTYR potency than 4‐butylresorcinol” value at human tyrosinase (hTYR) (ratio of IC50, vs 4‐butylresorcinol) was ~100 fold. In addition, on human tyrosinase (hTYR) (ratio of IC50, vs 377), the “fold greater hTYR potency than 377” value is “over 300 fold”. For the same compound, the “fold greater hTYR potency than Thiamidol” value at human tyrosinase (hTYR) (ratio of IC50, vs Thiamidol) is given as ~ 4 fold. For the same compound, at human tyrosinase (hTYR) (ratio of IC50, vs resveratrol), the “fold greater hTYR potency than resveratrol” value was ~86 fold. In addition, the inhibition (as a rule, the drop in the measured response relative to a control, in per cent) at 0.37 µM in the series with MNT‐1 cells (Homo sapiens, MNT-1, 144 h, 0.37 μM, 6 days, read-out: inhibition of melanin production) worked out at 48.4%. Further, the inhibition at 1.1 µM in the series with MNT‐1 cells (Homo sapiens, MNT-1, 144 h, 1.1 μM, 6 days, read-out: inhibition of melanin production) was determined as 63.3%. The inhibition at 3.3 µM with MNT‐1 cells (Homo sapiens, MNT-1, 144 h, 3.3 μM, 6 days, read-out: inhibition of melanin production) is 83.9%. In the series with MNT‐1 cells (Homo sapiens, MNT-1, 144 h, 10 μM, 6 days, read-out: inhibition of melanin production), the inhibition at 10 µM amounted to 86.7%. In addition, in the series on MNT‐1 cells (ratio of IC50, vs Thiamidol), the “fold greater melanin inhibitory potency compared to Thiamidol” value is reported as “approximately 3.6 fold”. Also, the DPPH clearance rate is listed as 8.9% in series [1] (0.4 mM); 20.2% in series [1] (2 mM); 43.2% in series [1] (10 mM); “exceeding 40%” in series [1] (as summed up in the discussion, concentration not given). The “cytotoxicity (cell viability)” value in the series on B16‐F10 cells and in the series with HaCaT cells was “no significant cytotoxicity” each time.
